Literature values as cited in patent publication US20100167988A1, “ETHOXYPHENYLMETHYL INHIBITORS OF SGLT2” (AUSPEX PHARMACEUTICALS, INC., priority 2008, published 2010).

System: multiple CYP enzymes, including CYP1A1, CYP1A2, CYP2A6, CYP2C9, CYP2D6, and CYP3A4
Conditions: recombinant CYP isoforms, in vitro

- turnover: low
Compound: CCOc1ccc(Cc2cc([C@@H]3O[C@H](CO)[C@@H](O)[C@H](O)[C@H]3O)ccc2Cl)cc1 [Dapagliflozin, (2S,3R,4R,5S,6R)-2-(3-(4-ethoxybenzyl)-4-chlorophenyl)-6-(hydroxymethyl)-tetrahydro-2H-pyran-3,4,5-triol]
